Where a name gives a salt, the structure may show the parent alone.
How the values were obtained:
[1] = tested on: human patient with BD or ADHD; assay: Clinical response of outpatient psychiatric patients to medication (clinical vignettes); type: in vivo; details: for Clinical stabilization of Bipolar I Disorder: Example 4, person, combination: aripiperazole, citalopram, oxcarbazepine and alprazolam
Description: (§1) Certain patients from the outpatient private psychiatric practice were retested after widely varying intervals as shown in the following Examples. Participation was completely voluntary and only allowed after the signing of a consent form. For the purpose of maintaining the privacy of the subject the lab work was performed confidentially (called blinding of the tester). Each patient was assigned an identification (ID) number and only the clinician had access to the key which correlated ID numbers with patient names.

[2] = tested on: whole blood cells; assay: Membrane potential ratio (MPR) test on blood cells of patients under drug treatment; type: in vivo, human; details: for MPR value: Example 6, patient with ADHD
Description: The MPR™ test is used to diagnose BD and ADHD. Briefly, the MPR™ test involves measuring the membrane potential of the human cells in a test buffer and in a reference buffer and calculating the ratio of these membrane potentials.
Briefly, the membrane potentials of whole blood cells are measured using two different buffers in a plate reader. The mean MPR™ value is the ratio between the membrane potential of a patient's cells in the test buffer as the numerator and that in the reference buffer as the denominator determined by statistical analysis of multiple measurements, using the ANOVA and the multiple statistical regression analysis.
The membrane potential of a patient's cells may be ascertained by any conventional method, such as by examining the fluorescence intensity of a potential-sensitive lipophilic fluorescent dye. The membrane potential is directly proportional to the intensity of fluorescence according to the following equation: I=CV, wherein I is the fluorescence intensity of a lipophilic fluorescent dye, V is the voltage or membrane potential, and C is a constant that can vary depending on a number of factors such as, but not limited to, temperature, lamp intensity, number of cells, concentration of the fluorescent dye, incubation time, and lipid composition of cells used. The calibration and determination of the value for C can be a cumbersome and unreliable procedure. Thus, according to the present invention, by using the ratio of the fluorescence intensity (I1) of one sample of cells to the fluorescence intensity (I2) of another sample of cells, the constant (C) is canceled out. Such ratio-metric measurements are preferred over absolute measurements.
as §1

[3] = tested on: human patient; assay: Side effects reported by patients on medication; type: in vivo; details: for Side effects: Example 5, combination: sertraline 50 mg per day and lamotrigine 200 mg per day
[4] = tested on: human patient with ADHD; assay: WHO screener for ADHD symptoms (patient self-report); type: in vivo; details: for WHO screener, score on the 6 screening items / WHO screener, score out of the total possible of 18: Example 5, combination: sertraline 50 mg per day and lamotrigine 200 mg per day
Description: Certain patients from the outpatient private psychiatric practice were retested after widely varying intervals as shown in the following Examples. Participation was completely voluntary and only allowed after the signing of a consent form. For the purpose of maintaining the privacy of the subject the lab work was performed confidentially (called blinding of the tester). Each patient was assigned an identification (ID) number and only the clinician had access to the key which correlated ID numbers with patient names. Because these were and are patients presenting for treatment, the priority has been their treatment. They have manifested all the typical variability found in clinical practice, and the resulting data points obtained are those possible under these circumstances. The paired MPR™ results are presented along with clinical vignettes. The patients with repeated tests are shown in example 1 and their vignettes are elucidated here. This clinical data and its interpretation provide the basis for the claims of the invention.

[5] = Example 4, combination: escitalopram 10 mg per day, aripiperazole 2 mg per day, alprazolam 0.5 mg twice a day as needed, tapering from oxcarbazepine (A in FIG. 4)
[6] = Example 2, combination: dextroamphetamine sulfate 5 mg three times per day and extended release dexmethylphenidate 20 mg morning and afternoon (C in FIG. 2)
[7] = Example 5, combination: sertraline 50 mg per day and lamotrigine 200 mg per day (B in FIG. 5)
[8] = Example 3, person with BD, combination: lithium, quetiapine and mirtazapine (B in FIG. 3)
[9] = Example 1, combination: selegiline transdermal 12 mg per 24 hours and mixed amphetamine salts 15 mg per day

**Q.** What does the source list for `Cc1nnc2n1-c1ccc(Cl)cc1C(c1ccccc1)=NC2` [alprazolam]?
**A.** Clinical stabilization of Bipolar I Disorder [1]: not fully stabilized; MPR test range [2, 5]: bipolar transition range

**Q.** What does the source list for `O=C1CCc2ccc(OCCCCN3CCN(c4cccc(Cl)c4Cl)CC3)cc2N1` [aripiperazole]?
**A.** Clinical stabilization of Bipolar I Disorder [1]: not fully stabilized; MPR test range [2, 5]: bipolar transition range

**Q.** With `CC(NC(C)(C)C)C(=O)c1cccc(Cl)c1` (stereo not drawn) [bupropion] as the compound, how does the “Clinical benefit by history” value ([1]; Example 5, earlier treatment, patient history) read?
**A.** had not offered a benefit

**Q.** How did the “MPR test result range” value [2, 6] turn out when `C[C@H](N)Cc1ccccc1` [dextroamphetamine sulfate] was run?
**A.** ADHD transition range

**Q.** With `CN(C)CCC[C@@]1(c2ccc(F)cc2)OCc2cc(C#N)ccc21` [escitalopram] as the compound, how does the MPR test range [2, 5] read?
**A.** bipolar transition range

**Q.** What does the source list for `COC(=O)[C@H](c1ccccc1)[C@H]1CCCCN1` [extended release dexmethylphenidate, dexmethylphenidate]?
**A.** Clinical benefit as reported by patient ([1]; Example 2, combination of dextroamphetamine and extended release dexmethylphenidate, compared with mixed amphetamine salts 40 mg): not working as well; MPR test result range [2, 6]: ADHD transition range

**Q.** Which results are given for `Nc1nnc(-c2cccc(Cl)c2Cl)c(N)n1` [lamotrigine]?
**A.** Side effects [3]: without complaint of side effects; Clinical benefit ([1]; Example 5, tapered up as per a starter pack, subject able to return to work): offered benefit quickly; WHO screener, score on the 6 screening items [4]: 0; WHO screener, score out of the total possible of 18 [4]: 1; MPR result range [2, 7]: ADHD range

**Q.** How did the “Clinical effect on ADHD symptoms reported by subject” value ([1]; Example 4, 10 mg twice per day, later 10 mg three times per day, added to BD medication) turn out when `COC(=O)C(c1ccccc1)C1CCCCN1` (stereo not drawn) [methylphenidate] was run?
**A.** benefit

**Q.** What about the MPR value ([2]; 10 mg (FIG. 6)) of the same compound?
**A.** close to the BD side of the negative range

**Q.** What about the MPR value ([2]; dose reduced to 5 mg (FIG. 6)) of the same compound?
**A.** moved up close to the right value

**Q.** With `CN1CCN2c3ncccc3Cc3ccccc3C2C1` (stereo not drawn) [mirtazapine] as the compound, how does the “Outcome of trial of adding the drug (depression)” value ([1]; Example 1, added to mixed amphetamine salts) read?
**A.** unsuccessful

**Q.** What about the MPR result range [2, 8] of the same compound?
**A.** negative (normal) range

**Q.** How did the “Clinical stabilization of Bipolar I Disorder” value [1] turn out when `NC(=O)N1c2ccccc2CC(=O)c2ccccc21` [oxcarbazepine] was run?
**A.** not fully stabilized

**Q.** With `OCCN1CCN(CCCN2c3ccccc3Sc3ccc(Cl)cc32)CC1` [perphenazine] as the compound, how does the “Side effect leading to discontinuation” value ([3]; Example 3, very low dosage for neurotic anxiety) read?
**A.** blurred vision

**Q.** With `OCCOCCN1CCN(C2=Nc3ccccc3Sc3ccccc32)CC1` [quetiapine] as the compound, how does the Mood stabilization ([1]; Example 4, addition of lithium 600 mg per day and Seroquel 100 mg at bedtime) read?
**A.** further stabilized clinically

**Q.** And the MPR result range [2, 8]?
**A.** negative (normal) range

**Q.** What about the MPR test range ([2]; Example 4, after addition of lithium 600 mg per day and Seroquel 100 mg at bedtime (B in FIG. 4)) of the same compound?
**A.** ADHD range

**Q.** With `C#CCN(C)[C@H](C)Cc1ccccc1` [selegiline transdermal, selegiline] as the compound, how does the “WHO screener, positive items of the six items” value (“WHO screener … of the six items” below) [4, 9] read?
**A.** 1

**Q.** For `CN[C@H]1CC[C@@H](c2ccc(Cl)c(Cl)c2)c2ccccc21` [sertraline], which Side effects [3] is on record?
**A.** without complaint of side effects

**Q.** What about the “Clinical effect on depression according to the subject” value ([1]; Example 5, person, 100 mg at bedtime) of the same compound?
**A.** no longer working

**Q.** And the “WHO screener, score on the 6 screening items” value [4]?
**A.** 0

**Q.** What about the “WHO screener, score out of the total possible of 18” value [4] of the same compound?
**A.** 1

**Q.** What about the MPR result range [2, 7] of the same compound?
**A.** ADHD range

**Q.** What about the MPR result range ([2]; Example 5, initial evaluation, subject on sertraline 100 mg at bedtime (A in FIG. 5)) of the same compound?
**A.** BD transition range

**Q.** How did the “Symptomatic control of ADHD” value ([1]; Example 2, 40 mg every morning) turn out when mixed amphetamine salts was run?
**A.** good symptomatic control

**Q.** What about the “WHO screener … of the six items” value [4, 9] of the same compound?
**A.** 1

**Q.** What about the “WHO screener, positive items of the 6 items” value ([4]; Example 1, taking only mixed amphetamine salts) of the same compound?
**A.** 3

**Q.** And the “WHO screener, positive items of the 6 items” value ([4]; Example 1, two weeks after stopping mixed amphetamine salts)?
**A.** 4

**Q.** And the “WHO screener … of the six items” value ([4]; Example 2, 40 mg every morning)?
**A.** two

**Q.** What about the MPR value range ([2]; Example 1, blood drawn third week after stopping mixed amphetamine salts (B in FIG. 1)) of the same compound?
**A.** ADHD range

**Q.** And the MPR value range ([2]; Example 1, person, taking only mixed amphetamine salts (A in FIG. 1))?
**A.** negative (normal) range

**Q.** What about the “MPR test result range” value ([2]; Example 2, 40 mg every morning, with lamotrigine for BD (B in FIG. 2)) of the same compound?
**A.** negative range

From patent publication US10082498B2, “Methods for treating ADHD and bipolar disorder using a membrane potential ratio test” (PSYCHNOSTICS, LLC., priority 2013, dated 2018)
